Entries after “also recorded” stand apart in the source; their conditions may differ. Where a name gives a salt, the structure may show the parent alone. Where only a bound is given, the exact number is not on record here.

Eight compounds from patent US20130012479A1, “POLYMORPHS OF 6-(PIPERIDIN-4-YLOXY)-2H-ISOQUINOLIN-1-ONE HYDROCHLORIDE” (SANOFI, priority 2011, published 2013) can be followed below.

Assay type in all cases: physicochemical
Data set [1] is described as follows: Drying of the dihydrate, retention of crystal structure. As to conditions: dihydrate dried. An excerpt:
In a further embodiment of the hydrate the water content is 11.4% (w/w). In a further embodiment the hydrate contains 2.0 molecules water per molecule (I). Although the hydrate phase typically contains about 10-12.5% water it can also occur with lower water content. The crystal structure of the hydrate remains even if the dihydrate is dried and the remaining water content is down to about 3%. Water uptake is reversible if humidity in the environment is raised again. The water content in the isolated product depends on the drying conditions used during work up of the hydrate after crystallisation.

The nature of data set [2]: Dynamic vapor sorption (DVS) water vapor sorption and desorption isotherms. Particulars: 25° C. As for the experimental part:
Moreover, the dihydrate may also be characterized by its DVS (dynamic vapor sorption) water vapor sorption and desorption isotherms measured at 25° C. as shown in FIG. 3. Before starting the sorption cycle the dihydrate sample is treated with dry nitrogen gas resulting in a transformation into phase 2 as shown by humidity resolved XRPD. […] A weight loss starts below 20% relative humidity and becomes strong below 10%, especially below 5%. The change in mass at low relative humidity is completely reversible and when the humidity increases again, the rehydration proceeds rapidly with small samples. However, for bulk samples rehydration of over-dried samples can take considerably longer and rehydration may require several days. Almost identical water sorption and desorption isotherms are observed at 40° C.
Moreover, phase 3 may also be characterized by its DVS (dynamic vapor sorption) water vapor sorption and desorption isotherms measured at 25° C. […] With decreasing humidity the dihydrate converts back at low humidity (below about 10% r.h.) into phase 2 (cycle 1, desorption). Phase 2 then converts into the dihydrate with increasing humidity and along the same isotherm it converts back with decreasing humidity into polymorph 2 (cycle 2, see also FIG. 3)
Moisture sorption/desorption isotherms were recorded on a DVS-1 from Surface Measurement Systems. […] Typical total measurement times for both cycles are about 20-30 hours.

Data set [3] is described as follows: Humidity-controlled (humidity-resolved) XRPD in a humidity chamber. Particulars: for time until transformation into the dihydrate at 95% relative humidity: sample held at 95% r.h. Here is the method: When humidity-controlled XRPD was performed at 25 and 40° C., widely identical results were obtained.
Exposure to elevated humidity causes transformation to the dihydrate as determined with humidity-controlled XRPD performed at 25° C. […] Phase 1 transformed into the dihydrate after about 15 min at 95%, which in turn changed to phase 2 after about 40 min at 2% r.h.
Exposure to elevated humidity causes transformation to the dihydrate as determined by humidity-controlled XRPD at 25° C. […] As a result phase 3 transformed into the hydrate after about 30 min at 95%, which in turn changed to phase 2 after about 30 min at 2% r.h.
Exposure to elevated humidity causes transformation to the dihydrate as determined by humidity-controlled XRPD. […] As a result phase 4 transformed into the dihydrate after about 15 min at 95%, which in turn changed to phase 2 after about 20 min at 2% r.h.
(§1) All X-ray powder diffraction was performed with Stoe Stadi-P transmission diffractometers using CuKα1 radiation (Lambda is 1.54060 Angström). For room temperature powder diffraction, linear position sensitive detectors were used while for temperature-resolved XRPD image plate position sensitive detectors (IP-PSDs) were used. Unless stated otherwise, X-ray powder diffraction was performed at room temperature. Dry samples were investigated in a flat preparation whereas suspensions were investigated in quartz glass capillaries. The measured data were evaluated and plotted with the Software WinXPOW V2.12.

Data set [4] in a line: Storage under usual storage conditions (25° C./65% relative humidity). An excerpt:
Moreover, the corresponding amorphous material is hygroscopic and the water content varies much stronger with the relative humidity compared to the dihydrate. This water uptake and variability in water content makes precise dosing during drug product manufacturing difficult. […] Accordingly, the crystalline dihydrate is therefore the preferred solid form for drug product manufacturing.

A short description of data set [5]: Temperature-resolved XRPD, DSC and TGA on heating. As to conditions: for solid-solid transition prior to melting: on heating. As for the experimental part: In this temperature range, transformation to phase 3 was observed as determined by XRPD.
as §1
The thermogravimetric analyses were performed with a METTLER TGA851e (module TGA/SDTA851e/SF1100/042). 100 μl Al crucibles sealed with lid were used. The sample changer punches a pinhole into the lid immediately before the start of the measurement. The oven cell is purged with a nitrogen gas flow of about 50 mL/min. The measurements typically start with a hold time of about 25 min at 25° C., followed by heating of the sample with a rate of 10°/min.
All DSC measurements were performed with a Mettler DSC822e (module DSC822e/700/109/414935/0025). If not indicated differently, 40 μl Al crucibles with sealed lid and hole were used. All measurements were carried out in a nitrogen gas flow of 50 mL/minute. The heating rate was 10° C./minute unless indicated otherwise. Temperature and heat flow were calibrated via the melting peak of an indium reference

A short description of data set [6]: Maturation experiments (slurry conversion) of suspensions. Particulars: for solid phase after maturation: 20° C., 35 days; for relative stability of the phase from maturation experiments: suspensions of phase mixtures in dry organic solvents, temperature range from 0 to 40° C. As for the experimental part:
By maturation experiments (slurry conversion) at the given temperature the relative stability of the polymorphs of compound (I) and the hydrate was investigated.
The following maturation experiment was performed by stirring the suspension under the specified conditions, starting from the dihydrate. The sample was investigated by XRPD in suspension, after vacuum filtration as well as after drying over night at 40° C. in vacuum (<50 mbar). The isolated material was also investigated by DSC and TGA.
a) Maturation of 0.210 g dihydrate of compound (I) in 0.4 mL of water at 20° C. for 35 days. Similar, maturation of the dihydrate was done in water/methanol (vol/vol 1:1) and in water/ethanol (vol/vol 1:1).
The following maturation experiments were performed by stirring the suspension under the specified conditions and isolating the solid by vacuum filtration, starting from dihydrate of compound (I). The sample was investigated by XRPD in suspension, after vacuum filtration as well as after drying. The isolated material was also investigated by DSC and TGA.
(b) Maturation of 0.203 g of dihydrate of compound (I) in 1.2 mL of methanol at 20° C. for 35 days. (c) Maturation was also done as in (b) by using ethanol, 1-propanol or 2-propanol.
The following maturation experiments of suspensions of phase mixtures of the dihydrate of compound (I) and phases consisting of polymorphs 1, 3 and 4 were performed at 0, 20 and 40° C. The product was isolated by vacuum filtration and analyzed after drying.
e) Maturation of a mixture of 0.3 mg phase 1, 23.9 mg phase 3, 29.9 mg phase 4 and 27.9 mg of the dihydrate in 0.7 mL 2-propanol at 0° C. for 2 weeks. f) Maturation of a mixture of 0.3 mg phase 1, 27.2 mg phase 3, 18.1 mg phase 4 and 29.6 mg of the dihydrate in 2.0 mL 2-butanol at 0° C. for 2 weeks. g) Similar experiments as in e) and f) were done with corresponding mixtures of phase 1, phase 3, phase 4 and the dihydrate in 2-propanol and 2-butanol at 20° C. and at 40° C., respectively

Data set [7] is described as follows: Storage at 20° C. and 75% relative humidity. Here is the method: Also storage of phase 1 at 20° C. and 75% relative humidity caused complete conversion to the dihydrate within 3 weeks. The rate of conversion correlates with the relative humidity.
(§2) Also storage of phase 3 at 20° C. and 75% relative humidity caused complete conversion to the dihydrate within 3 weeks. The rate of conversion correlates with the relative humidity. When suspended in water, complete transformation into the dihydrate was observed almost immediately (<10 min).
Also storage of phase 4 at 20° C. and 75% relative humidity caused complete conversion to the dihydrate within 3 weeks. The rate of conversion apparently correlates with the relative humidity.

The nature of data set [8]: Suspension in water, phase transformation. Here is the method: as §2
Data set [9] in a line: Stability of the solvate outside the mother liquor. Particulars: in the presence of humidity starts to transform to the hydrate. An excerpt: Thus, a further aspect of the present invention relates to the use of the methyl acetate solvate of compound (I) for the production of the hydrate, for example by subjecting it to conditions, such as an elevated temperature and/or humidity which facilitate the loss of methyl acetate and attracting water.

The mark [10] stands for this setting: listed as phase 4, hydrochloride.
[11] abbreviates: listed as phase 3, hydrochloride.
[12] abbreviates: listed as phase 1, hydrochloride.

For `O=c1[nH]ccc2cc(OC3CCNCC3)ccc12` [dihydrate, 6-(Piperidin-4-yloxy)-2H-isoquinolin-1-one hydrochloride dihydrate], the “remaining water content down to which the crystal structure of the hydrate remains” value in data set [1] is “about 3%”. For the same compound, the “relative humidity below which the dihydrate converts into phase 2” value in data set [2] (cycle 1, desorption) is “below 10%”. Also, the “relative humidity below which weight loss starts” value in data set [2] (desorption cycle) is “below 20%”. Also, in data set [2] (hydrochloride dihydrate), the “hygroscopicity / water content as a function of relative humidity” value is given as “quite constant water content”. In [2] (relative humidities between 95% and 20%), the “water content in the desorption cycle” value was “almost constant”. Further, the “relative humidity at which reversible transformation into phase 2 was observed” value in data set [3] (25 and 40° C.) was 2%. Moreover, the “time until the dihydrate changed to phase 2 at 2% r.h.” value in data set [3] (sample held at 2% r.h., hydrochloride dihydrate) is “about 30 min”. Moreover, in [4], the “stability under usual storage conditions” value is reported as “stable for more than two years”. Also, the decomposition on storage entry in [4] (more than two years) is listed as “no detectable decomposition”. In addition, in data set [5], the “temperature below which the form is stable” value was “below 90 °C”. Besides, the “temperature at which transformation to phase 3 starts” value in [5] (temperature-resolved XRPD, on heating with loss of water) was “about 90 °C”. For the same compound, the “solid phase after maturation” value in [6] (2-butanol, after drying) is on record as “Polymorph 4 was obtained”; in [6] (methanol, ethanol, 1-propanol or 2-propanol) it was “polymorph 3 was obtained”; in data set [6] (water, water/methanol (1:1) or water/ethanol (1:1)) it was “remained as dihydrate”.

As to `O=c1[nH]ccc2cc(OC3CCNCC3)ccc12` [polymorph 4, 6-(Piperidin-4-yloxy)-2H-isoquinolin-1-one hydrochloride], the “time to complete conversion to the dihydrate on storage” value in [7] is given as ≤ 3 weeks. Further, in data set [3] (setting [10]), the “time until transformation into the dihydrate at 95% relative humidity” value is on record as “about 15 min”. The “solid-solid transition prior to melting” value in [5] (setting [10]) was “No transformation into another crystalline phase 1, 2 or 3; also recorded: melted without preceding solid-solid transitions”. Moreover, in data set [6] (setting [10]), the “relative stability of the phase from maturation experiments” value (“relative stability of the phase” for short) was “only a metastable one”.

For `O=c1[nH]ccc2cc(OC3CCNCC3)ccc12` [polymorph 3, 6-(Piperidin-4-yloxy)-2H-isoquinolin-1-one hydrochloride], the “relative humidity above which the phase changed into the dihydrate” value in data set [2] (cycle 1, sorption) was “above 80%”. Also, the “time to complete transformation into the dihydrate when suspended in water” value in [8] is given as < 10 min. Also, the “time until transformation into the dihydrate at 95% relative humidity” value in data set [3] (setting [11]) is “about 30 min”. Also, the “solid-solid transition prior to melting” value in data set [5] (setting [11]) was “melted without preceding solid-solid transitions; also recorded: No transformation into another crystalline phase”. For the same compound, in [6] (at and around room temperature, less than about 10% relative humidity), the “relative stability at low relative humidity” value is “the most stable phase”. Besides, the “relative stability of the phase” value in [6] (setting [11]) is recorded as “the most stable anhydrous phase; also recorded: thermodynamically most stable anhydrous form”.

As for `O=c1[nH]ccc2cc(OC3CCNCC3)ccc12` [amorphous material, 6-(Piperidin-4-yloxy)-2H-isoquinolin-1-one hydrochloride], the “hygroscopicity / water content as a function of relative humidity” value in data set [2] (hydrochloride) is reported as “hygroscopic”.

With `O=c1[nH]ccc2cc(OC3CCNCC3)ccc12` [polymorph 1, 6-(Piperidin-4-yloxy)-2H-isoquinolin-1-one hydrochloride], the “time until transformation into the dihydrate at 95% relative humidity” value in [3] (listed as Phase 1, hydrochloride) is on record as “about 15 min”. In addition, the “solid-solid transition prior to melting” value in [5] (setting [12]) is given as “melted without preceding solid-solid transitions; also recorded: No transformation into another crystalline phase”. For the same compound, the “relative stability of the phase” value in data set [6] (setting [12]) is “only a metastable polymorph”.

For the compound `O=c1[nH]ccc2cc(OC3CCNCC3)ccc12` [1,4-dioxane solvate, 6-(Piperidin-4-yloxy)-2H-isoquinolin-1-one hydrochloride×0.5 1,4-dioxane solvate], in data set [5], the “stability of the solvate on heating” value was “relatively stable”.

Take `O=c1[nH]ccc2cc(OC3CCNCC3)ccc12` [methyl acetate solvate, 6-(Piperidin-4-yloxy)-2H-isoquinolin-1-one hydrochloride]: the “stability of the solvate outside the mother liquor” value in data set [9] is “only moderately stable”.

Consider `O=c1[nH]ccc2cc(OC3CCNCC3)ccc12` [polymorph 2, 6-(Piperidin-4-yloxy)-2H-isoquinolin-1-one hydrochloride], for which the “solid-solid transition prior to melting” value in [5] (listed as phase 2, hydrochloride) is listed as “melted without preceding solid-solid transitions”.
